{"source": "patent US4167405A", "about": "“Fertilizers for supplying plants with iron” (Bayer Aktiengesellschaft, priority 1977, dated 1979)", "key": {"[1]": {"tested_on": "Chrysanthemum indicum (Variety: Yellow Delaware)", "experiment": "Combating iron deficiency/leaf uptake test", "assay_type": "in vivo", "method": "Test plant: Chrysanthemum indicum (Variety: Yellow Delaware)\nCulture substrate: Mixture of polystyrene foam flock (Styromull) and potassium alginate in the volume ratio of 10:1\nTo prepare a suitable formulation of the active compound, the particular amount of active compound desired was dissolved in water.\nTest plants were grown in a culture substrate of the composition indicated above, fertilization and watering being effected by adding, twice weekly, a mineral-iron-deficient nutrient solution according to Hoagland and Arnon (Circular 347, College of Agriculture, University of California, Berkeley 1950). […] After 2 days the plants were again sprayed with the active compound formulation in the same manner.\nThe evaluation took place when an average of 2 leaves had newly formed on the plants treated with an optimum amount of a water-soluble, commercially available iron fertilizer, in each case, the average number of newly formed leaves was determined on all test plants. Furthermore, the intensity of the green colour of newly formed leaves was rated and expressed as a numerical code.\nIn this, the figures denoted:\n1=0% chlorotic (dark green)\n9=100% chlorotic (corresponding to the untreated control plants)"}, "[2]": {"experiment": "Water solubility of the preparation", "assay_type": "physicochemical"}, "[3]": {"details": "nutrient preparation in the spray liquor 0.03 %"}, "[4]": {"details": "nutrient preparation in the spray liquor 0.14 %"}, "[5]": {"details": "nutrient preparation in the spray liquor 0.16 %"}, "[6]": {"details": "nutrient preparation in the spray liquor 0.78 %"}, "[7]": {"details": "nutrient preparation in the spray liquor 0.13 %"}, "[8]": {"details": "nutrient preparation in the spray liquor 0.66 %"}, "[9]": {"details": "nutrient preparation in the spray liquor 0.15 %"}, "[10]": {"details": "nutrient preparation in the spray liquor 0.74 %"}, "[11]": {"details": "nutrient preparation in the spray liquor 0.12 %"}, "[12]": {"details": "nutrient preparation in the spray liquor 0.59 %"}, "[13]": {"details": "nutrient preparation in the spray liquor 0.62 %"}}, "data": [{"molecule": "CCCCCCCC(=O)[c-]1cccc1.[Fe+2].c1cc[cH-]c1", "note": "[Example 6, n-octanoylferrocene]", "values": [{"measurement": "Average number of newly formed leaves", "setting": "[1]; [3]", "result": 4}, {"measurement": "Intensity of the green colour of young leaves", "setting": "[1]; [3]", "result": "3 (25% chlorotic)"}, {"measurement": "Average number of newly formed leaves", "setting": "[1]; [4]", "result": 5}, {"measurement": "Intensity of the green colour of young leaves", "setting": "[1]; [4]", "result": "2-3"}, {"measurement": "Water solubility of the preparation", "setting": "[2]", "result": "slight"}]}, {"molecule": "CCCCCCCCCC(=O)[c-]1cccc1.[Fe+2].c1cc[cH-]c1", "note": "[Example 2, n-decanoyl-ferrocene]", "values": [{"measurement": "Average number of newly formed leaves", "setting": "[1]; [3]", "result": 4}, {"measurement": "Intensity of the green colour of young leaves", "setting": "[1]; [3]", "result": "3 (25% chlorotic)"}, {"measurement": "Average number of newly formed leaves", "setting": "[1]; [5]", "result": 5}, {"measurement": "Intensity of the green colour of young leaves", "setting": "[1]; [5]", "result": "2-3"}, {"measurement": "Average number of newly formed leaves", "setting": "[1]; [6]", "result": 5}, {"measurement": "Intensity of the green colour of young leaves", "setting": "[1]; [6]", "result": 2}, {"measurement": "Water solubility of the preparation", "setting": "[2]", "result": "slight"}]}, {"molecule": "CCCCCCC(=O)[c-]1cccc1.[Fe+2].c1cc[cH-]c1", "note": "[Example 5, n-heptanoylferrocene]", "values": [{"measurement": "Average number of newly formed leaves", "setting": "[1]; [7]", "result": 4}, {"measurement": "Intensity of the green colour of young leaves", "setting": "[1]; [7]", "result": "3 (25% chlorotic)"}, {"measurement": "Average number of newly formed leaves", "setting": "[1]; [8]", "result": 4}, {"measurement": "Intensity of the green colour of young leaves", "setting": "[1]; [8]", "result": "2-3"}, {"measurement": "Water solubility of the preparation", "setting": "[2]", "result": "slight"}]}, {"molecule": "CCCCCCCCC(=O)[c-]1cccc1.[Fe+2].c1cc[cH-]c1", "note": "[Example 7, n-nonaoylferrocene]", "values": [{"measurement": "Average number of newly formed leaves", "setting": "[1]; [3]", "result": 4}, {"measurement": "Intensity of the green colour of young leaves", "setting": "[1]; [3]", "result": "3 (25% chlorotic)"}, {"measurement": "Average number of newly formed leaves", "setting": "[1]; [9]", "result": 5}, {"measurement": "Intensity of the green colour of young leaves", "setting": "[1]; [9]", "result": "2-3"}, {"measurement": "Average number of newly formed leaves", "setting": "[1]; [10]", "result": 5}, {"measurement": "Intensity of the green colour of young leaves", "setting": "[1]; [10]", "result": 2}, {"measurement": "Water solubility of the preparation", "setting": "[2]", "result": "slight"}]}, {"molecule": "CCCCC(=O)[c-]1cccc1.[Fe+2].c1cc[cH-]c1", "note": "[Example 3, n-pentanoylferrocene]", "values": [{"measurement": "Average number of newly formed leaves", "setting": "[1]; [11]", "result": 4}, {"measurement": "Intensity of the green colour of young leaves", "setting": "[1]; [11]", "result": "2-3"}, {"measurement": "Average number of newly formed leaves", "setting": "[1]; [12]", "result": 4}, {"measurement": "Intensity of the green colour of young leaves", "setting": "[1]; [12]", "result": 2}, {"measurement": "Water solubility of the preparation", "setting": "[2]", "result": "slight"}]}, {"molecule": "CCCCCC(=O)[c-]1cccc1.[Fe+2].c1cc[cH-]c1", "note": "[Example 4, n-hexanoylferrocene]", "values": [{"measurement": "Average number of newly formed leaves", "setting": "[1]; [7]", "result": 3}, {"measurement": "Intensity of the green colour of young leaves", "setting": "[1]; [7]", "result": "3 (25% chlorotic)"}, {"measurement": "Average number of newly formed leaves", "setting": "[1]; [13]", "result": 3}, {"measurement": "Intensity of the green colour of young leaves", "setting": "[1]; [13]", "result": "2-3"}, {"measurement": "Water solubility of the preparation", "setting": "[2]", "result": "slight"}]}]}
